Source: the supplement of paper PMC10307832

Key:
Assay in all cases: relative viability (nuclei count vs DMSO), 5 days (fraction); higher = more cells survive
Idelalisib + Decitabine = compound: CC[C@H](Nc1ncnc2[nH]cnc12)c1nc2cccc(F)c2c(=O)n1-c1ccccc1 [Idelalisib] + Nc1ncn([C@H]2C[C@H](O)[C@@H](CO)O2)c(=O)n1 [Decitabine] (partner 2 µM)
Summary of the method: (§1)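 Relative viability is defined as nuclei in treated wells over nuclei in vehicle wells. Duplicate plates were run and medians reported. Lung cancer cell lines in 1536-well plates were dosed by pin tool one day after seeding, with one drug or with a fixed anchor-drug dose plus five library-drug doses (not always all listed) in √10 steps, and nuclei were counted after 5 days.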

Pemetrexed + OSI-027 = compound: Nc1nc2[nH]cc(CCc3ccc(C(=O)N[C@@H](CCC(=O)O)C(=O)O)cc3)c2c(=O)[nH]1 [Pemetrexed] + COc1cccc2cc(-c3nc([C@H]4CC[C@H](C(=O)O)CC4)n4ncnc(N)c34)[nH]c12 [OSI-027] (partner 0.5 µM)
Summary of the method: as §1

Pemetrexed + Alpelisib = compound: Nc1nc2[nH]cc(CCc3ccc(C(=O)N[C@@H](CCC(=O)O)C(=O)O)cc3)c2c(=O)[nH]1 [Pemetrexed] + Cc1nc(NC(=O)N2CCC[C@H]2C(N)=O)sc1-c1ccnc(C(C)(C)C(F)(F)F)c1 [Alpelisib] (partner 2 µM)
Summary of the method: as §1

Pemetrexed + Vorinostat = compound: Nc1nc2[nH]cc(CCc3ccc(C(=O)N[C@@H](CCC(=O)O)C(=O)O)cc3)c2c(=O)[nH]1 [Pemetrexed] + O=C(CCCCCCC(=O)Nc1ccccc1)NO [Vorinostat] (partner 1 µM)
Summary of the method: as §1

| Cell Line | relative viability (Idelalisib + Decitabine; first compound 0.04 µM) | relative viability (Idelalisib + Decitabine; first compound 0.1265 µM) | relative viability (Idelalisib + Decitabine; first compound 0.4 µM) | relative viability (Idelalisib + Decitabine; first compound 1.265 µM) | relative viability (Idelalisib + Decitabine; first compound 4 µM) | relative viability (Pemetrexed + OSI-027; first compound 0.002 µM) | relative viability (Pemetrexed + OSI-027; first compound 0.006325 µM) | relative viability (Pemetrexed + OSI-027; first compound 0.02 µM) | relative viability (Pemetrexed + OSI-027; first compound 0.06325 µM) | relative viability (Pemetrexed + OSI-027; first compound 0.2 µM) | relative viability (Pemetrexed + Alpelisib; first compound 0.002 µM) | relative viability (Pemetrexed + Alpelisib; first compound 0.006325 µM) | relative viability (Pemetrexed + Alpelisib; first compound 0.02 µM) | relative viability (Pemetrexed + Alpelisib; first compound 0.06325 µM) | relative viability (Pemetrexed + Alpelisib; first compound 0.2 µM) | relative viability (Pemetrexed + Vorinostat; first compound 0.002 µM) | relative viability (Pemetrexed + Vorinostat; first compound 0.006325 µM) | relative viability (Pemetrexed + Vorinostat; first compound 0.02 µM) | relative viability (Pemetrexed + Vorinostat; first compound 0.06325 µM) | relative viability (Pemetrexed + Vorinostat; first compound 0.2 µM) |
| --- | --- | --- | --- | --- | --- | --- | --- | --- | --- | --- | --- | --- | --- | --- | --- | --- | --- | --- | --- | --- |
| LU99A | 0.876 | 0.843 | 0.777 | 1.02 | 0.914 | 0.334 | 0.267 | 0.326 | 0.292 | 0.313 | 0.517 | 0.556 | 0.492 | 0.498 | 0.346 | 0.488 | 0.464 | 0.495 | 0.466 | 0.385 |
| LXF-289 | 0.438 | 0.402 | 0.368 | 0.438 | 0.395 | 0.775 | 0.759 | 0.909 | 0.76 | 0.744 | 1.04 | 1 | 1.07 | 1.05 | 0.969 | 0.625 | 0.758 | 0.795 | 0.74 | 0.718 |
| NCI-H23 | 0.331 | 0.339 | 0.309 | 0.313 | 0.329 | 0.516 | 0.532 | 0.623 | 0.684 | 0.663 | 0.666 | 0.532 | 0.741 | 0.503 | 0.601 | 0.464 | 0.592 | 0.77 | 0.713 | 0.62 |
| NCI-H322M | 0.712 | 0.69 | 0.613 | 0.664 | 0.746 | 0.606 | 0.484 | 0.536 | 0.583 | 0.476 | 0.814 | 0.724 | 0.813 | 0.776 | 0.773 | 0.84 | 0.957 | 0.888 | 0.893 | 0.58 |
| NCI-H358 | 0.237 | 0.216 | 0.191 | 0.202 | 0.21 | 0.729 | 0.751 | 0.638 | 0.191 | 0.106 | 0.917 | 0.79 | 0.538 | 0.314 | 0.27 | 0.616 | 0.655 | 0.414 | 0.167 | 0.122 |
| NCI-H441 | 0.313 | 0.235 | – | 0.267 | 0.187 | 0.63 | 0.504 | 0.574 | 0.431 | 0.368 | 0.667 | 0.686 | 0.932 | 0.531 | 0.53 | 0.693 | 0.788 | 0.763 | 0.695 | 0.262 |
| NCI-H460 | 0.382 | 0.562 | 0.448 | 0.466 | 0.503 | 0.57 | 0.51 | 0.824 | 0.374 | 0.0473 | 0.479 | 0.344 | 0.518 | 0.151 | 0.0576 | – | 0.683 | 0.784 | 0.57 | 0.0651 |
| NCI-H520 | 0.506 | 0.386 | 0.45 | 0.502 | 0.431 | 0.225 | 0.246 | 0.321 | 0.267 | 0.265 | 0.92 | 0.828 | 0.948 | 0.823 | 0.697 | 0.671 | 0.7 | 0.718 | 0.681 | 0.709 |
| NCI-H596 | 0.994 | 0.962 | 1.06 | 1.15 | 0.887 | 0.705 | 0.691 | 0.642 | 0.632 | 0.414 | 0.409 | 0.485 | 0.593 | 0.39 | 0.374 | 0.707 | 0.577 | 0.576 | 0.468 | 0.385 |
| NCI-H647 | 0.332 | 0.408 | 0.3 | 0.318 | 0.193 | 0.467 | 0.492 | 0.806 | 0.744 | 0.318 | – | 1.02 | 1.3 | 0.836 | 0.296 | 0.387 | 0.479 | 0.594 | 0.458 | 0.171 |
| NCI-H650 | 0.345 | 0.324 | 0.344 | 0.348 | 0.28 | 0.536 | 0.562 | 0.551 | 0.507 | 0.532 | 1.17 | 0.999 | 1.11 | 0.956 | 1.09 | 0.378 | 0.552 | – | 0.427 | 0.453 |
| NCI-H661 | 0.616 | 0.583 | 0.543 | 0.6 | 0.542 | 0.782 | 0.711 | 0.767 | 0.698 | 0.694 | 0.732 | 0.563 | 0.621 | 0.636 | 0.794 | 0.761 | 0.72 | 0.821 | 0.8 | 0.745 |
| NCI-H727 | 1.03 | 0.747 | 0.867 | 0.881 | 0.889 | 0.568 | 0.668 | 0.587 | 0.692 | 0.752 | 0.577 | 0.534 | 0.596 | 0.678 | 0.594 | 1.18 | 1.12 | 1.26 | 1.16 | 1.06 |
